According to patent US8835471B2, “Use of angiotensin II agonists” (Vicore Pharma AB, priority 2010, dated 2014):

How the values were obtained:
[1] = tested on: BDNF; test: BDNF mRNA expression by RT-qPCR in murine primary astrocytes; assay type: cell-based; conditions: primary mouse astrocytes, FIG. 6a
Procedure: (§1) Total RNA from cells was extracted using NucleoSpin RNA II extraction kit including DNAse treatment to digest genomic DNA (Macherey & Nagel, Düren, Germany).
(§2) RNA concentration was measured spectrophotometrically at a wavelength of 260 nm. Purity was assessed by the quotient 260/280 nm.
(§3) 250 ng of cell-derived mRNA were reverse transcribed into complementary DNA using moloney murine leukaemia virus (M-MLV) reverse transcriptase, 5× M-MLV buffer, deoxy-NTPs, random primers and RNasin (reagents from Promega, Mannheim, Germany) at 37° C. for 60 min. In order to control for genomic DNA contaminations, RNA was additionally transcribed in the absence of M-MLV reverse transcriptase (RT minus control).
(§4) To measure gene expression, the transcribed cDNA was amplified by quantitative real-time PCR (Stratagen MX Pro, Agilent Technologies Sales & Services GmbH & Co. KG, Waldbronn, Germany) in a final volume of 25 μl with the specific primers in commercial Power SYBR Green Master Mix (Applied Biosystems, Foster City, USA). Expression values were normalized against 18SrRNA expression.
(§5) All PCR primers were purchased from Operon Biotechnologies (Köln, Germany). […]

[2] = tested on: TrkB; test: TrkB mRNA expression by RT-qPCR in murine primary neurons; assay type: cell-based; conditions: primary mouse neurons, FIG. 5b
Procedure: (§6) Primary neurons were isolated from brains of E15 mouse embryos.
as §1, §2, §3, §4, §5

[3] = tested on: CST nerve fibres of mice with spinal cord injury; test: Cortical spinal tract tracing (BDA-labelled nerve fibres) after spinal cord injury; assay type: in vivo, mouse; conditions: FIG. 4
Procedure: To anterogradely label the CST, 2 μl of biotinylated dextran amine (10% BDA) were then injected into the motor cortex. BDA-positive CST nerve fibres were visualized by 3,3′-diaminobenzidine staining and counted cranial and caudal to the lesion in serial sections and normalized to the number of labelled fibres in the dorsoventral diameter of the CST in cross sections at T4.
The bars in FIG. 2 represent the percentage of nerve fibres in the area between the end of the CST and the lesion centre (TE-LC) and in the area 0.1, 0.2 or 0.5 mm distal to the lesion centre (0.1, 0.2 or 0.5 mm from LC).
The potential for administration of the compound of Example 1(i) to mice to lead to regeneration of axonal fibres and bridging of the site of injury by reinnervation, following spinal cord injury, was examined. This involved tracking motor neurons by injection of BDA-labelled dextran into the motor cortex.

[4] = tested on: Balb/C mice with spinal cord contusion lesion; test: Spinal cord contusion injury, locomotor recovery scored with the Basso Mouse Scale (BMS); assay type: in vivo
Description: In studies of spinal cord injury in mice, the recovery of the mice in the studies may be monitored and quantified using the Basso Mouse Scale (Basso D. M., et al., Journal of Neurotrauma, Volume 23, No. 5, 635-659 (2006), the entirety of which is hereby incorporated by reference). Using this method, each mouse in such studies may be awarded a score based on the criteria outlined in Table 1 and FIG. 1 of Basso et al., supra,
Spinal cord injury and cortical spinal tract (CST) tracing were performed as described in (Boato et al. 2010). […] A gelfoam patch containing 1 μM the compound of Example 1(i) was then placed on top of the perforated dura (only in the second experiment, see Example 3), the muscles were sutured and the back skin closed with wound clips. Recovery of function after SCI was determined by scoring the locomotor hindlimb performance in the open field with the BMS, a 0-9 rating system based on the BBB scale and specifically designed for the mouse (Basso D. M., et al., Journal of Neurotrauma, Volume 23, No. 5, 635-659 (2006)). Under blind conditions, investigator evaluated the mice over a 4-min time period daily. Before surgery, animals were acclimated to the open field and to handling to prevent fear and/or stress behaviours that could bias the locomotor assessment.

[5] = tested on: viable neurons at the site of spinal cord injury; test: Histochemical stainings of injured spinal cords for Nissl (viable neurons); assay type: in vivo, mouse; conditions: versus vehicle-treated animals; FIG. 8
Procedure: Animals were fixated as described above.
For staining of viable neurons the NeuroTrace® 500/525 green fluorescent Nissl stain (Invitrogen) was used. Briefly, after rehydration tissue slices were permeabilized in PBS containing 0.1% Triton X-100 for 10 minutes at room temperature. After washing NeuroTrace solution (100 fold diluted in PBS) was applied to the sections and incubated for 20 minutes at room temperature. After washing, samples were mounted for microscopy.
(§7) For measurement of signal intensity six sections per animal containing the lesion centre were analyzed. Micrographs were made in 15 rectangular boxes along the spinal cord covering the lesion and surrounding area. Using ImageJ software (NIH) pictures were converted into the 8-Bit grayscale and the signal intensity for each box was evaluated.

[6] = tested on: TrkB; test: Immunohistochemical stainings of injured spinal cords for TrkB; assay type: in vivo, mouse; conditions: 4 week treatment; area of injury and peri-lesional tissue; versus vehicle; FIG. 7
Description: Animal tissues were fixated by transcardial perfusion with normal saline followed by ice-cold 4% paraformaldehyde in 0.1 M phosphate-buffered saline. After perfusion, spinal cords were dissected and post-fixed overnight in the same fixative. The next day, the tissues were embedded in Jung-Tissue Freezing Medium (Leica Microsystems Nussloh, Germany) and cut longitudinally along the horizontal plane (40 μm thickness) into six series using a freezing microtome.
For immunostaining, samples were preincubated with 10% normal goat serum dissolved in PBS containing 0.5% Triton X-100 for 30 minutes at room temperature (RT). Incubation with primary antibody (Santa Cruz) was carried out overnight at 4° C. Following repeated washing steps with PBS, secondary antibodies (Jackson ImmunoResearch Laboratories) were applied for 2 hours at RT. After removal of unbound antibodies, sections were mounted.
as §7, with “center” for “centre”, “greyscale” for “grayscale”

[7] = tested on: TrkB; test: TrkB mRNA expression by RT-qPCR in murine primary astrocytes; assay type: cell-based; conditions: primary mouse astrocytes, FIG. 6b
Procedure: as §1, §2, §3, §4, §5

[8] = tested on: BDNF; test: BDNF mRNA expression by RT-qPCR in murine primary neurons; assay type: cell-based; conditions: primary mouse neurons, FIG. 5a
Procedure: as §6, §1, §2, §3, §4, §5

CCCCOC(=O)NS(=O)(=O)c1sc(CC(C)C)cc1-c1ccc(Cn2ccnc2)cc1 [Example 1(i), N-Butyloxycarbonyl-3-(4-imidazol-1-ylmethylphenyl)-5-iso-butylthiophene-2-sulfonamide]
expression of BDNF ([1]; 10^−6M): induced expression | production of mRNA encoding TrkB [2]: significantly increased | number of BDA-labelled axons (CST nerve fibres) compared to controls [3]: significantly increased | Basso Mouse Scale score better than vehicle treated mice ([4]; Balb/C mice, treated once daily, versus vehicle, FIG. 1): approximately 1.5 points | neurological deficits (Basso Mouse Score) compared to controls ([4]; Balb/C mice, treated once daily, day 2 and 3 and from day 9 until the end of the study, FIG. 1): significantly reduced neurological deficits | neurological outcome (BMS), difference between routes of administration ([4]; systemically (i.p.) versus gel placed at the site of injury, FIG. 2): no statistically significant difference | BMS subscore paw position of hindlimbs, recovery ([4]; versus vehicle treated mice, where almost completely absent, FIG. 3): continuous recovery | increase in BMS subscore paw position, statistical significance ([4]; versus vehicle, FIG. 3): statistically significant from day 7 until the end of the observational period | Nissl positive cells (viable neurons) at the site of spinal cord injury [5]: significant increase | TrkB immunoreactivity (signal intensity) in spinal cord [6]: strongly increased | expression of TrkB ([7]; 10^−6M): induced expression | production of mRNA encoding BDNF [8]: significantly increased

Cc1cc(Cn2cnc3c2C[C@@H](C(=O)O)N(C(=O)C(c2ccccc2)c2ccccc2)C3)ccc1N(C)C [PD123319, reference compound]
effect of co-treatment with AT2R-antagonist on BDNF expression induced by the compound of Example 1(i) ([1]; co-treatment with Example 1(i)): abrogated | effect of AT2R-antagonist on TrkB mRNA increase induced by the compound of Example 1(i) ([2]; combination with Example 1(i)): completely blocked | effect of co-treatment with AT2R-antagonist on TrkB expression induced by the compound of Example 1(i) ([7]; co-treatment with Example 1(i)): abrogated | effect of AT2R-antagonist on BDNF mRNA increase induced by the compound of Example 1(i) ([8]; combination with Example 1(i)): completely blocked
